From US20240173319A1, “SOLID DOSE PHARMACEUTICAL COMPOSITION” (Sumitomo Pharma Oncology, Inc., priority 2019, published 2024)

Experiments:
Format in all cases: physicochemical
[1] = Log D (pH 7.4) of the API
Description: The hydrochloride salt of the compound of formula (I) was formulated into three (3) oral dose strengths (5, 25, and 125 mg dose [based on free base]). The physicochemical properties of the compound of formula (I), the active pharmaceutical ingredient (API), are summarized in Table 1.

[2] = Solubility of the API in media
Description: The solubility of the API was tested. In all media, solubility of the compound is good, namely the maximum tested dose of 125 mg was found soluble in 250 mL of media. […] This characterization may not be accurate for larger doses. Reference is made to Table 2.

[3] = Excipient compatibility study, related substances (unknown RRT)
Description: An initial excipient compatibility study was performed.
In the compatibility study, all the samples were evaluated for two (2) primary properties: appearance and related substances.
(close) for 4W with respect to their related substance profile.

[4] = 40° C./75% RH, open glass vial, 4 week

COc1cc(Nc2nccc(Nc3cccnc3-c3ccccn3)n2)ccc1N1CCN(C)CC1.Cl [API, N2-[3-methoxy-4-(4-methylpiperazin-1yl)phenyl]-N4-[2-(pyridin-2-yl)pyridin 3-yl] pyrimidine-2,4-diamine hydrochloride]
logD [1]: 2.66 | Maximum dose mg solubility in 250 ml ([2]; 0.1N HCl): 256 mg | solubility ([2]; 0.1N HCl, pH 1.005, simulated gastric fluid): 1030 µg/mL | Maximum dose mg solubility in 250 ml ([2]; Water): 252 mg | Solubility characterization with reference to BCS classification ([2]; maximum tested dose of 125 mg in 250 mL of media): highly soluble | Maximum dose mg solubility in 250 ml ([2]; pH 4.5 Acetate buffer): 253 mg | solubility ([2]; pH 4.5 acetate buffer, pH 4.508, aqueous buffer): 1010 µg/mL | Maximum dose mg solubility in 250 ml ([2]; pH 6.8 Phosphate buffer): 245 mg | solubility ([2]; pH 6.8 phosphate buffer, pH 6.812, aqueous buffer): 980 µg/mL | solubility ([2]; water, pH 6.213, water): 1010 µg/mL | Total (related substances) [3, 4]: 0.84% | Unknown RRT 0.162 [3, 4]: 0.11% | Unknown RRT 0.866 [3, 4]: BQL | Unknown RRT 0.989 [3, 4]: BQL | Unknown RRT 1.046 [3, 4]: BQL | Unknown RRT 1.07 [3, 4]: 0.07% | Unknown RRT 1.08 [3, 4]: 0.05% | Unknown RRT 1.341 [3, 4]: 0.2% | Unknown RRT 1.38 [3, 4]: 0.1% | Unknown RRT 1.549 [3, 4]: 0.19% | Unknown RRT 1.633 [3, 4]: 0.12% | Total (related substances) ([3]; Initial): 0.93% | Unknown RRT 0.162 ([3]; Initial): 0.12% | Unknown RRT 0.989 ([3]; Initial): BQL | Unknown RRT 1.046 ([3]; Initial): BQL | Unknown RRT 1.07 ([3]; Initial): 0.07% | Unknown RRT 1.08 ([3]; Initial): 0.06% | Unknown RRT 1.341 ([3]; Initial): 0.27% | Unknown RRT 1.38 ([3]; Initial): 0.08% | Unknown RRT 1.549 ([3]; Initial): 0.21% | Unknown RRT 1.633 ([3]; Initial): 0.12%
